The values below come from US9346809B2 (LEO PHARMA A/S, priority 2009, dated 2016).

What all share (type): biochemical
For test [1], the target named is T1, JAK1 (aa 850-1154, catalytic domain, GST-tag) (Homo sapiens, UniProt P23458).
T1 construct: JAK1 (aa 850-1154) and TYK2 (aa 871-1187) are expressed with an N-terminally fused GST-tag; GST (N); purchased Carna Biosciences, Inc; host or cells: baculovirus expression system
The test is described as follows: JAK kinase assay (HTRF, phosphorylation of TK substrate-biotin), JAK1. As to conditions: ATP at Km (7 μM). A digest of the protocol: (§1)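 Compound was mixed with TK substrate-biotin (1 μM final), then kinase plus ATP at its Km was added and left 20-30 min at room temperature. Detection mix with EDTA, Streptavidin-XL665 and STK Ab Cryptate stopped the reaction; after overnight dark incubation, HTRF was read and EC50 derived.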
On the technique in general: In TR-FRET formats the signal depends on donor and acceptor labels being close together.

Test [2] deals with T2, JAK2 (catalytic domain, His-tag) (Homo sapiens, UniProt O60674).
T2 construct: All four purified enzymes contain only the catalytic domain; His (N); purchased Carna Biosciences, Inc; host or cells: baculovirus expression system
T2 sequence (O60674 849-1124 limits assumed): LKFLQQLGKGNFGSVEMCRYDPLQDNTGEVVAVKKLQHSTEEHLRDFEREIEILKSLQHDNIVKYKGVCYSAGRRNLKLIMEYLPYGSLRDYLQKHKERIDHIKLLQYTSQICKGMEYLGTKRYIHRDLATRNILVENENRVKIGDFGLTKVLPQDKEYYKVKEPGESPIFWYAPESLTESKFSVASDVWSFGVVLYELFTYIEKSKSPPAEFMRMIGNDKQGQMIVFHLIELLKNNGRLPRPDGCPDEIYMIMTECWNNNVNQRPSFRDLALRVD
The test is described as follows: JAK kinase assay (HTRF, phosphorylation of TK substrate-biotin), JAK2. The note with it: ATP at Km (4 μM). A digest of the protocol:
as §1

In test [3] the target is T3, JAK3 (catalytic domain, His-tag) (Homo sapiens, UniProt P52333).
T3 construct: All four purified enzymes contain only the catalytic domain; His (N); purchased Carna Biosciences, Inc; host or cells: baculovirus expression system
T3 sequence (P52333 822-1111 limits assumed): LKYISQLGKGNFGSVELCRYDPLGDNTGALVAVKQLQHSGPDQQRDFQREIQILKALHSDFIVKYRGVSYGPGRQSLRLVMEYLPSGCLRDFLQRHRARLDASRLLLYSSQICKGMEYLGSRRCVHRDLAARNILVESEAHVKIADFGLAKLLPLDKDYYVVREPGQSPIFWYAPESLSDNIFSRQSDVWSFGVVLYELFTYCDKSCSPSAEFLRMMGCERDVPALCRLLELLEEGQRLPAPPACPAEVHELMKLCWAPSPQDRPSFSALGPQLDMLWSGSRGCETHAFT
The test is described as follows: JAK kinase assay (HTRF, phosphorylation of TK substrate-biotin), JAK3. As to conditions: ATP at Km (2 μM). An outline of the steps: as §1

Test [4] addresses T4, TYK2 (aa 871-1187, catalytic domain, GST-tag) (Homo sapiens, UniProt P29597).
T4 construct: JAK1 (aa 850-1154) and TYK2 (aa 871-1187) are expressed with an N-terminally fused GST-tag; GST (N); purchased Carna Biosciences, Inc; host or cells: baculovirus expression system
T4 sequence (P29597 871-1187): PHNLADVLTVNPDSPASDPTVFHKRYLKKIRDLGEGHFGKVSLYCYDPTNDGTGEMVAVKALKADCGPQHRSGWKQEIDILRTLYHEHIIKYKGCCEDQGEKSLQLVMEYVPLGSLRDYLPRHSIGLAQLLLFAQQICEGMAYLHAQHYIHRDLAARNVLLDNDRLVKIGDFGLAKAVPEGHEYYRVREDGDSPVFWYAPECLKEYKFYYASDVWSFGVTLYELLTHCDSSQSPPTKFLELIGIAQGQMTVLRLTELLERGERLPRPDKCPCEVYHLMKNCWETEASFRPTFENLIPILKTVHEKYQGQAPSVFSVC
The test is described as follows: JAK kinase assay (HTRF, phosphorylation of TK substrate-biotin), TYK2. As to conditions: ATP at Km (13 μM). An outline of the steps: as §1

Where [5] appears, read: HTRF assay, read-out: JAK1 kinase inhibitory activity (EC50 indicator).
Setting [6] is: HTRF assay, read-out: JAK2 kinase inhibitory activity (EC50 indicator).
Setting [7] is: HTRF assay, read-out: JAK3 kinase inhibitory activity (EC50 indicator).
The mark [8] stands for this setting: HTRF assay, read-out: TYK2 kinase inhibitory activity (EC50 indicator).
The mark [9] stands for this setting: HTRF assay, read-out: JAK1 kinase inhibitory activity (EC50).
Where [10] appears, read: HTRF assay, read-out: JAK2 kinase inhibitory activity (EC50).
[11] abbreviates: HTRF assay, read-out: JAK3 kinase inhibitory activity (EC50).
[12] abbreviates: HTRF assay, read-out: TYK2 kinase inhibitory activity (EC50).
The mark [13] stands for this setting: read-out: JAK1 kinase inhibitory activity (EC50 indicator).
Setting [14] is: read-out: JAK2 kinase inhibitory activity (EC50 indicator).
[15] abbreviates: read-out: JAK3 kinase inhibitory activity (EC50 indicator).
Where [16] appears, read: read-out: TYK2 kinase inhibitory activity (EC50 indicator).

Read-outs that look alike come from different tables or passages of the source.

As a reminder, the EC50 is the midpoint of the concentration-response curve.

T1 sequence (P23458 850-1154): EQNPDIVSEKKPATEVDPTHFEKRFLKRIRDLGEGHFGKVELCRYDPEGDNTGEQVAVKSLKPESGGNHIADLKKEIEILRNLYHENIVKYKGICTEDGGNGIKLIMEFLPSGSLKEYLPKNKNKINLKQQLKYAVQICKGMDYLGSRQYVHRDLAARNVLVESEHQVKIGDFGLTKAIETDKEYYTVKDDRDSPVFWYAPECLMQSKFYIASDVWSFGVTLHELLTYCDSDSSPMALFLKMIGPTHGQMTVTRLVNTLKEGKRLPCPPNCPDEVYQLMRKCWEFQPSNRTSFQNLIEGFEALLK

For the compound `NS(=O)(=O)c1ccc(C(=O)NCC(=O)N2CCN(c3ncnc4[nH]ccc34)CC23CC3)cc1` [Example 410, N-{2-Oxo-2-[7-(7H-pyrrolo[2,3-d]pyrimidin-4-yl)-4,7-diaza-spiro[2.5]oct-4-yl]-ethyl}-4-sulfamoyl-benzamide], the EC50 in test [1] (setting [5]), in test [2] (setting [6]), in test [3] (setting [7]) and in test [4] (setting [8]) was < 100 nM in each case.
Regarding `NS(=O)(=O)c1ccc(OCC(=O)N2CCN(c3ncnc4[nH]ccc34)CC23CC3)c(F)c1` [Example 434, 3-Fluoro-4-{2-oxo-2-[7-(7H-pyrrolo[2,3-d]pyrimidin-4-yl)-4,7-diaza-spiro[2.5]oct-4-yl]-ethoxy}-benzenesulfonamide], the EC50 in test [1] (setting [9]), in test [2] (setting [10]), in test [3] (setting [11]) and in test [4] (setting [12]) was < 100 nM throughout.
With `NS(=O)(=O)c1ccc(-c2ccc(C(=O)N3CCN(c4ncnc5[nH]ccc45)CC34CC4)o2)cc1` [Example 400, 4-{5-[7-(7H-Pyrrolo[2,3-d]pyrimidin-4-yl)-4,7-diaza-spiro[2.5]octane-4-carbonyl]-furan-2-yl}-benzenesulfonamide], the concentration for a half-maximal effect (EC50) in test [1] (setting [5]) is < 100 nM; in test [2] (setting [6]), < 100 nM; in test [3] (setting [7]), 100 to 500 nM; in test [4] (setting [8]) it was 100 to 500 nM.
Regarding `N#Cc1cccc(CC(=O)N2CCN(c3ncnc4[nH]cc(Cl)c34)CC23CC3)c1` [Example 323, 3-{2-[7-(5-Chloro-7H-pyrrolo[2,3-d]pyrimidin-4-yl)-4,7-diaza-spiro[2.5]oct-4-yl]-2-oxo-ethyl}-benzonitrile], the 50% effective concentration (EC50) was > 500 nM in test [1] (setting [5]), < 100 nM in test [2] (setting [6]), 100 to 500 nM in test [3] (setting [7]) and > 500 nM in test [4] (setting [8]).
As for `S=C(COc1ccccc1)N1CCN(c2ncnc3[nH]ccc23)CC12CC2` [Example 448, 2-Phenoxy-1-[7-(7H-pyrrolo[2,3-d]pyrimidin-4-yl)-4,7-diaza-spiro[2.5]oct-4-yl]-ethanethione], the EC50 was < 100 nM in test [1] (setting [9]), < 100 nM in test [2] (setting [10]), < 100 nM in test [3] (setting [11]) and 100 to 500 nM in test [4] (setting [12]).
Take `COc1cnc2[nH]ccc2c1N1CCN(C(=O)Cc2cccc(C#N)c2)C2(CC2)C1` [Example 294, 3-{2-[7-(5-Methoxy-1H-pyrrolo[2,3-b]pyridin-4-yl)-4,7-diaza-spiro[2.5]oct-4-yl]-2-oxo-ethyl}-benzonitrile]: the EC50 in test [1] (setting [5]) is 100 to 500 nM; in test [2] (setting [6]), 100 to 500 nM; in test [3] (setting [7]), 100 to 500 nM; in test [4] (setting [8]), > 500 nM.
Take `N#CCN1CCCC(C(=O)N2CCN(c3ncnc4[nH]ccc34)CC23CC3)C1` (stereo not shown) [Example 94, {3-[7-(7H-Pyrrolo[2,3-d]pyrimidin-4-yl)-4,7-diaza-spiro[2.5]octane-4-carbonyl]-piperidin-1-yl}-acetonitrile]: the EC50 was 100 to 500 nM in test [1] (setting [13]), < 100 nM in test [2] (setting [14]), 100 to 500 nM in test [3] (setting [15]) and 100 to 500 nM in test [4] (setting [16]).
Consider `CCCNS(=O)(=O)c1ccc(C(=O)N2CCN(c3ncnc4[nH]ccc34)CC23CC3)cc1` [Example 377, N-Propyl-4-[7-(7H-pyrrolo[2,3-d]pyrimidin-4-yl)-4,7-diaza-spiro[2.5]octane-4-carbonyl]-benzenesulfonamide], for which the concentration giving a half-maximal response (EC50) in test [1] (setting [5]) was < 100 nM; in test [2] (setting [6]), < 100 nM; in test [3] (setting [7]), < 100 nM; in test [4] (setting [8]) it was 100 to 500 nM.
Take `N#CCCNS(=O)(=O)c1ccc(C(=O)N2CCN(c3ncnc4[nH]ccc34)CC23CC3)cc1` [Example 395, N-(2-Cyano-ethyl)-4-[7-(7H-pyrrolo[2,3-d]pyrimidin-4-yl)-4,7-diaza-spiro[2.5]octane-4-carbonyl]-benzenesulfonamide]: the EC50 in test [1] (setting [5]), in test [2] (setting [6]), in test [3] (setting [7]) and in test [4] (setting [8]) was < 100 nM each time.
Consider `O=C(c1cc2cc(F)ccc2[nH]1)N1C2CCC1CN(c1ncnc3[nH]ccc13)C2` [Example 136, (5-Fluoro-1H-indol-2-yl)-[3-(7H-pyrrolo[2,3-d]pyrimidin-4-yl)-3,8-diaza-bicyclo[3.2.1]oct-8-yl]-methanone], for which the EC50 is < 100 nM in test [1] (setting [13]), < 100 nM in test [2] (setting [14]), < 100 nM in test [3] (setting [15]) and 100 to 500 nM in test [4] (setting [16]).
Regarding `O=C(CCC(F)(F)F)N1[C@@H]2CC[C@H]1CN(c1ncnc3[nH]ccc13)C2` [Example 181, 4,4,4-Trifluoro-1-[3-(7H-pyrrolo[2,3-d]pyrimidin-4-yl)-3,8-diaza-bicyclo[3.2.1]oct-8-yl]-butan-1-one], the EC50 is < 100 nM in test [1] (setting [13]), < 100 nM in test [2] (setting [14]), 100 to 500 nM in test [3] (setting [15]) and 100 to 500 nM in test [4] (setting [16]).
Regarding `Cc1c[nH]c2ncnc(N3CCN(C(=O)Cc4cccc(C#N)c4)C4(CC4)C3)c12` [Example 333, 3-{2-[7-(5-Methyl-7H-pyrrolo[2,3-d]pyrimidin-4-yl)-4,7-diaza-spiro[2.5]oct-4-yl]-2-oxo-ethyl}-benzonitrile], the EC50 in test [1] (setting [5]), in test [2] (setting [6]), in test [3] (setting [7]) and in test [4] (setting [8]) was > 500 nM each time.
Take `Cc1ccc2sc(C(=O)N3[C@@H]4CC[C@H]3CN(c3ncnc5[nH]ccc35)C4)cc2c1` [Example 247, (5-Methyl-benzo[b]thiophen-2-yl)-[3-(7H-pyrrolo[2,3-d]pyrimidin-4-yl)-3,8-diaza-bicyclo[3.2.1]oct-8-yl]-methanone]: the concentration for a half-maximal effect (EC50) in test [1] (setting [5]) was < 100 nM; in test [2] (setting [6]) it was < 100 nM; in test [3] (setting [7]) it was 100 to 500 nM; in test [4] (setting [8]) it was > 500 nM.
`O=C(CCc1ccccc1)N1[C@@H]2CC[C@@H]1CN(c1ncnc3[nH]ccc13)C2` [Example 168, 3-Phenyl-1-[3-(7H-pyrrolo[2,3-d]pyrimidin-4-yl)-3,8-diaza-bicyclo[3.2.1]oct-8-yl]-propan-1-one]: the concentration for a half-maximal effect (EC50) is < 100 nM in test [1] (setting [13]), < 100 nM in test [2] (setting [14]), 100 to 500 nM in test [3] (setting [15]) and > 500 nM in test [4] (setting [16]).
Regarding `CCCc1cc(C(=O)N2CCN(c3ncnc4[nH]ccc34)CC23CC3)cs1` [Example 207, (5-Propyl-thiophen-3-yl)-[7-(7H-pyrrolo[2,3-d]pyrimidin-4-yl)-4,7-diaza-spiro[2.5]oct-4-yl]-methanone], the EC50 is < 100 nM in test [1] (setting [5]), < 100 nM in test [2] (setting [6]), 100 to 500 nM in test [3] (setting [7]) and 100 to 500 nM in test [4] (setting [8]).
For `Nc1nc(N2CCN(C(=O)c3cnc4ccccc4n3)C3(CC3)C2)c2cc[nH]c2n1` [Example 305, [7-(2-Amino-7H-pyrrolo[2,3-d]pyrimidin-4-yl)-4,7-diaza-spiro[2.5]oct-4-yl]-quinoxalin-2-yl-methanone], the EC50 in test [1] (setting [5]) was < 100 nM; in test [2] (setting [6]), < 100 nM; in test [3] (setting [7]) it was 100 to 500 nM; in test [4] (setting [8]), 100 to 500 nM.
On to `O=C(c1ccncc1)N1[C@@H]2CC[C@@H]1CN(c1ncnc3[nH]ccc13)C2` [Example 242, Pyridin-4-yl-[3-(7H-pyrrolo[2,3-d]pyrimidin-4-yl)-3,8-diaza-bicyclo[3.2.1]oct-8-yl]-methanone], for which the half-maximal effective concentration (EC50) is < 100 nM in test [1] (setting [5]), < 100 nM in test [2] (setting [6]), 100 to 500 nM in test [3] (setting [7]) and > 500 nM in test [4] (setting [8]).
Turning to `O=C(Cc1c[nH]c2ccccc12)N1CCN(c2ncnc3[nH]ccc23)CC12CC2` [Example 14, 2-(1H-Indol-3-yl)-1-[7-(7H-pyrrolo[2,3-d]pyrimidin-4-yl)-4,7-diazaspiro[2.5]oct-4-yl]ethanone], the concentration giving a half-maximal response (EC50) in test [1] (setting [13]) is 100 to 500 nM; in test [2] (setting [14]) it was < 100 nM; in test [3] (setting [15]), 100 to 500 nM; in test [4] (setting [16]), > 500 nM.
For the compound `CC(C)S(=O)(=O)c1ccc(C(=O)N2C3CCC2CN(c2ncnc4[nH]ccc24)C3)cc1` [Example 202, [4-(Propane-2-sulfonyl)-phenyl]-[3-(7H-pyrrolo[2,3-d]pyrimidin-4-yl)-3,8-diaza-bicyclo[3.2.1]oct-8-yl]-methanone], the concentration for a half-maximal effect (EC50) in test [1] (setting [13]) is 100 to 500 nM; in test [2] (setting [14]), 100 to 500 nM; in test [3] (setting [15]) it was > 500 nM; in test [4] (setting [16]) it was > 500 nM.
